Legend:
Type in all cases: functional
[1] = system: PC-3; assay: Growth inhibition of human PC3 cells after 48 hrs by sulforhodamine B assay; conditions: PC-3, 48 h
[2] = system: DU-145; assay: Growth inhibition of human DU145 cells after 48 hrs by sulforhodamine B assay; conditions: DU-145, 48 h
[3] = system: MKN-74; assay: Growth inhibition of human MKN74 cells after 48 hrs by sulforhodamine B assay; conditions: MKN-74, 48 h
[4] = system: MKN-45; assay: Growth inhibition of human MKN45 cells after 48 hrs by sulforhodamine B assay; conditions: MKN-45, 48 h
[5] = Growth inhibition of human MKN1 cells after 48 hrs by sulforhodamine B assay; conditions: MKN-1, 48 h
[6] = system: St-4; assay: Growth inhibition of human St-4 cells after 48 hrs by sulforhodamine B assay; conditions: St-4, 48 h
[7] = system: ACHN; assay: Growth inhibition of human ACHN cells after 48 hrs by sulforhodamine B assay
[8] = Growth inhibition of human RXF631L cells after 48 hrs by sulforhodamine B assay; conditions: RXF 631, 48 h
[9] = system: SK-OV-3; assay: Growth inhibition of human SKOV3 cells after 48 hrs by sulforhodamine B assay; conditions: SK-OV-3, 48 h
[10] = system: OVCAR-5; assay: Growth inhibition of human OVCAR5 cells after 48 hrs by sulforhodamine B assay; conditions: OVCAR-5, 48 h
[11] = system: OVCAR-8; assay: Growth inhibition of human OVCAR8 cells after 48 hrs by sulforhodamine B assay; conditions: OVCAR-8, 48 h
[12] = system: OVCAR-4; assay: Growth inhibition of human OVCAR4 cells after 48 hrs by sulforhodamine B assay; conditions: OVCAR-4, 48 h
[13] = system: OVCAR-3; assay: Growth inhibition of human OVCAR3 cells after 48 hrs by sulforhodamine B assay; conditions: OVCAR-3, 48 h
[14] = system: DMS-273; assay: Growth inhibition of human DMS273 cells after 48 hrs by sulforhodamine B assay; conditions: DMS-273, 48 h
[15] = system: A549; assay: Growth inhibition of human A549 cells after 48 hrs by sulforhodamine B assay; conditions: A549, 48 h
[16] = system: NCI-H460; assay: Growth inhibition of human NCI-H460 cells after 48 hrs by sulforhodamine B assay; conditions: NCI-H460, 48 h
[17] = system: NCI-H522; assay: Growth inhibition of human NCI-H522 cells after 48 hrs by sulforhodamine B assay; conditions: NCI-H522, 48 h
[18] = system: NCI-H226; assay: Growth inhibition of human NCI-H226 cells after 48 hrs by sulforhodamine B assay; conditions: NCI-H226, 48 h
[19] = system: NCI-H23; assay: Growth inhibition of human NCI-H23 cells after 48 hrs by sulforhodamine B assay; conditions: NCI-H23, 48 h
[20] = system: HCT-15; assay: Growth inhibition of human HCT15 cells after 48 hrs by sulforhodamine B assay; conditions: HCT-15, 48 h
[21] = system: HT-29; assay: Growth inhibition of human HT-29 cells after 48 hrs by sulforhodamine B assay; conditions: HT-29, 48 h
[22] = system: KM12; assay: Growth inhibition of human KM12 cells after 48 hrs by sulforhodamine B assay; conditions: KM12, 48 h
[23] = Growth inhibition of human HCC2998 cells after 48 hrs by sulforhodamine B assay; conditions: HCC 2998, 48 h
[24] = system: SNB-78; assay: Growth inhibition of human SNB78 cells after 48 hrs by sulforhodamine B assay; conditions: SNB-78, 48 h
[25] = system: SNB-75; assay: Growth inhibition of human SNB75 cells after 48 hrs by sulforhodamine B assay; conditions: SNB-75, 48 h
[26] = system: SF-539; assay: Growth inhibition of human SF539 cells after 48 hrs by sulforhodamine B assay; conditions: SF-539, 48 h
[27] = system: SF-295; assay: Growth inhibition of human SF295 cells after 48 hrs by sulforhodamine B assay; conditions: SF-295, 48 h
[28] = system: SF-268; assay: Growth inhibition of human SF268 cells after 48 hrs by sulforhodamine B assay; conditions: SF-268, 48 h
[29] = system: U-251; assay: Growth inhibition of human U251 cells after 48 hrs by sulforhodamine B assay; conditions: U-251, 48 h
[30] = system: MDA-MB-231; assay: Growth inhibition of human MDA-MB-231 cells after 48 hrs by sulforhodamine B assay; conditions: MDA-MB-231, 48 h
[31] = system: MCF7; assay: Growth inhibition of human MCF7 cells after 48 hrs by sulforhodamine B assay; conditions: MCF7, 48 h
[32] = Growth inhibition of human HBC5 cells after 48 hrs by sulforhodamine B assay; conditions: HBC5, 48 h
[33] = Growth inhibition of human HBC4 cells after 48 hrs by sulforhodamine B assay; conditions: HBC4, 48 h
[34] = system: MKN-28; assay: Growth inhibition of human MKN28 cells after 48 hrs by sulforhodamine B assay; conditions: MKN-28, 48 h
[35] = system: MKN-7; assay: Growth inhibition of human MKN7 cells after 48 hrs by sulforhodamine B assay; conditions: MKN-7, 48 h
[36] = system: LOX IMVI; assay: Growth inhibition of human LOXIMVI cells after 48 hrs by sulforhodamine B assay
[37] = system: DMS-114; assay: Growth inhibition of human DMS114 cells after 48 hrs by sulforhodamine B assay; conditions: DMS-114, 48 h
[38] = system: HCT-116; assay: Growth inhibition of human HCT116 cells after 48 hrs by sulforhodamine B assay; conditions: HCT-116, 48 h
[39] = Growth inhibition of human BSY1 cells after 48 hrs by sulforhodamine B assay; conditions: BSY-1, 48 h

Work on `CCCCCCCCCCCC[C@@H](O)[C@H]1CC[C@H]([C@H](O)CCCCCCCCCCNC(=O)c2ccnn2C)O1` yielded a GI50 [1] of 18.2 µM, a GI50 [2] of over 100 µM and a GI50 [3] of 3.89 µM. It also gave a GI50 [4] of 7.41 µM, a GI50 [5] of 43.7 µM and a GI50 [6] of 18.2 µM. It also gave a GI50 [7] of 24 µM, a GI50 [8] of over 100 µM and a GI50 [9] of over 100 µM. The GI50 [10] was over 100 µM, the GI50 [11] was 30.9 µM and the GI50 [12] was 22.9 µM. The GI50 [13] was 77.6 µM, the GI50 [14] was 5.75 µM and the GI50 [15] was 12.9 µM. It also gave a GI50 [16] of 8.13 µM, a GI50 [17] of 1.41 µM and a GI50 [18] of 40.7 µM. The GI50 [19] was 0.0525 µM, the GI50 [20] was over 100 µM and the GI50 [21] was over 100 µM. The GI50 [22] was over 100 µM, the GI50 [23] was over 100 µM and the GI50 [24] was over 100 µM. For the same compound, the GI50 [25] was 50.1 µM, the GI50 [26] was 3.72 µM and the GI50 [27] was 10 µM. The GI50 [28] was over 100 µM, the GI50 [29] was over 100 µM and the GI50 [30] was 8.51 µM. The GI50 [31] was 3.24 µM, the GI50 [32] was 17 µM and the GI50 [33] was over 100 µM.
`CCCCCCCCCCCC[C@@H](O)[C@H]1CC[C@H]([C@H](O)CCCCCCCCCCC(=O)Nc2ccnn2C)O1` showed a GI50 [1] of over 100 µM, a GI50 [2] of over 100 µM and a GI50 [3] of over 100 µM. For the same compound, the GI50 [4] was over 100 µM, the GI50 [34] was 18.2 µM and the GI50 [35] was 20.9 µM. The GI50 [5] was over 100 µM, the GI50 [6] was over 100 µM and the GI50 [7] was over 100 µM. It also gave a GI50 [8] of over 100 µM, a GI50 [9] of over 100 µM and a GI50 [10] of over 100 µM. The GI50 [11] was over 100 µM, the GI50 [12] was over 100 µM and the GI50 [13] was over 100 µM. For the same compound, the GI50 [36] was over 100 µM, the GI50 [37] was 3.31 µM and the GI50 [14] was over 100 µM. For the same compound, the GI50 [15] was over 100 µM, the GI50 [16] was over 100 µM and the GI50 [17] was 28.8 µM. It also gave a GI50 [18] of 75.9 µM, a GI50 [19] of 26.9 µM and a GI50 [38] of 64.6 µM. It also gave a GI50 [20] of over 100 µM, a GI50 [21] of over 100 µM and a GI50 [22] of over 100 µM. For the same compound, the GI50 [23] was over 100 µM, the GI50 [24] was over 100 µM and the GI50 [25] was over 100 µM. It also gave a GI50 [26] of over 100 µM, a GI50 [27] of 57.5 µM and a GI50 [28] of over 100 µM. The GI50 [29] was over 100 µM, the GI50 [30] was over 100 µM and the GI50 [31] was over 100 µM. For the same compound, the GI50 [32] was over 100 µM, the GI50 [33] was over 100 µM and the GI50 [39] was 95.5 µM.
`CCCCCCCCCCCC[C@@H](O)[C@H]1CC[C@H]([C@H](O)CCCCCCCCCCOC(=O)c2ccnn2C)O1` showed a GI50 [1] of 28.2 µM, a GI50 [2] of over 100 µM and a GI50 [3] of 30.9 µM. The GI50 [4] was over 100 µM, the GI50 [34] was 2.51 µM and the GI50 [35] was 0.617 µM. The GI50 [5] was 43.7 µM, the GI50 [6] was 30.2 µM and the GI50 [7] was 57.5 µM. For the same compound, the GI50 [8] was over 100 µM, the GI50 [9] was over 100 µM and the GI50 [10] was over 100 µM. It also gave a GI50 [11] of over 100 µM, a GI50 [12] of over 100 µM and a GI50 [13] of over 100 µM. The GI50 [36] was 12.9 µM, the GI50 [37] was 0.407 µM and the GI50 [14] was 38 µM. The GI50 [15] was 56.2 µM, the GI50 [16] was 34.7 µM and the GI50 [17] was 6.31 µM. It also gave a GI50 [18] of 28.2 µM, a GI50 [19] of 11 µM and a GI50 [38] of 3.98 µM. The GI50 [20] was 47.9 µM, the GI50 [21] was 32.4 µM and the GI50 [22] was 20 µM. The GI50 [23] was 46.8 µM, the GI50 [24] was 44.7 µM and the GI50 [25] was over 100 µM. For the same compound, the GI50 [26] was over 100 µM, the GI50 [27] was 30.9 µM and the GI50 [28] was over 100 µM. For the same compound, the GI50 [29] was 69.2 µM, the GI50 [30] was over 100 µM and the GI50 [31] was 22.9 µM. It also gave a GI50 [32] of 25.7 µM, a GI50 [33] of 51.3 µM and a GI50 [39] of 0.813 µM.
With `CCCCCCCCCCCC[C@@H](O)[C@H]1CC[C@H]([C@H](O)CCCCCCCCCCCCC2=C[C@H](C)OC2=O)O1` [REL-SOLAMIN] the GI50 [1] was over 100 µM, the GI50 [2] was over 100 µM and the GI50 [3] was over 100 µM. It also gave a GI50 [4] of over 100 µM, a GI50 [5] of over 100 µM and a GI50 [6] of over 100 µM. The GI50 [7] was over 100 µM, the GI50 [8] was over 100 µM and the GI50 [9] was over 100 µM. It also gave a GI50 [10] of over 100 µM, a GI50 [11] of over 100 µM and a GI50 [12] of over 100 µM. It also gave a GI50 [13] of over 100 µM, a GI50 [36] of 28.8 µM and a GI50 [37] of 4.27 µM. For the same compound, the GI50 [14] was over 100 µM, the GI50 [15] was over 100 µM and the GI50 [16] was over 100 µM. For the same compound, the GI50 [18] was over 100 µM, the GI50 [38] was over 100 µM and the GI50 [20] was over 100 µM. For the same compound, the GI50 [21] was over 100 µM, the GI50 [22] was over 100 µM and the GI50 [23] was over 100 µM. The GI50 [24] was over 100 µM, the GI50 [25] was over 100 µM and the GI50 [26] was over 100 µM. The GI50 [27] was 39.8 µM, the GI50 [28] was over 100 µM and the GI50 [29] was over 100 µM. It also gave a GI50 [30] of over 100 µM, a GI50 [32] of over 100 µM and a GI50 [33] of over 100 µM. For the same compound, the GI50 [39] was over 100 µM.

Reference: ChEMBL document CHEMBL2380246, “Structure-activity relationships of hybrid annonaceous acetogenins: powerful growth inhibitory effects of their connecting groups between heterocycle and hydrophobic carbon chain bearing THF ring on human cancer cell lines” (2013)
